Test results: patent US20230391842A1, “RETRO-INVERSO PEPTIDES” (Herantis Pharma OYJ, priority 2019, published 2023)
Positions of bridges follow the written chain, without caps; N, C: chain ends. Non-standard residues stand in square brackets, D forms with d. Residues, ends and D or L forms follow the SMILES beside them.

Legend:
[1] = In vitro metabolic stability in rat plasma; assay type: in vitro ADME; settings: 1 μM, 37° C., up to 120 min
Description: Metabolic stability of the retro-inverso and native control peptides was studied using rat plasma over the time period of 120 min, with initial test concentration of 1 μM. Samples were analysed using LC/QE-orbitrap-MS. Calculated half-life is based on compound disappearance in rat plasma.
The incubation was terminated by acetonitrile. […] Stock solutions was prepared using 50% DMSO, and the compounds were spiked 1/100 to incubation to have final DMSO content of 0.5%. […] For analysis of compounds 13-14 and 19-20 stock solutions were prepared with PBS, and samples were analyzed by UHPLC-ToF mass spectrometry. Enalapril 1 μM was used as a disappearance rate control.

[2] = In vitro metabolic stability in human plasma; assay type: in vitro ADME; settings: 1 μM, 37° C., up to 120 min
Description: Metabolic stability was studied using human plasma over the time period of 120 min, with initial test concentration of 1 μM. Samples were analysed using LC/QE-orbitrap-MS. Calculated half-life is based on compound disappearance in human plasma.
The incubation was terminated by acetonitrile. […] Propanthelin bromide 1 uM was used as a disappearance rate control. […] The in vitro half-life (t1/2) of is study compound is defined as: t1/2=ln2/k.

rat hepatocytes = experiment: In vitro metabolic stability in rat hepatocytes; settings: 1 μM, 37° C., 0-60 min
human hepatocytes = experiment: In vitro metabolic stability in human hepatocytes; settings: 1 μM, 37° C., 0-60 min
[3] = system: dopaminergic TH-positive neurons injured with MPP+; experiment: Neuroprotective effect on dopaminergic TH-positive neurons injured with MPP+ (primary mesencephalic culture); assay type: cell-based, rat; settings: MPP+ 4 μM, 48 h; stated for 'most cases'
Description: Neuroprotective effects of compounds 1-20 (SEQ ID NO:s 1-20, parent and retro-inverso) were tested in an in vitro model in which primary cultures of rat embryonic mesencephalic neurons were stressed with MPP+, the active metabolite of neurotoxin 1-methyl-4-phenyl-1,2,3,6-tetrahydropyridine (MPTP). MPP+ kills dopaminergic (TH-positive) neurons via a variety of toxic mechanisms, including mitochondrial dysfunction, generation of peroxynitrite, oxidative stress, ER stress and induction of apoptosis.
Rat dopaminergic neurons were cultured as described by Visanji et al., 2008. Briefly, the midbrains obtained from 15-day-old rat embryos (Janvier, France) were dissected, and the ventral portion of the mesencephalic flexure, a region of the developing brain rich in dopaminergic neurons, was used for the cell preparations. The midbrain cells were dissociated by trypsinization for 20 min at 37° C. […] The reaction was stopped by adding Dulbecco's modified Eagle's medium (DMEM) containing DNAase I grade II (0.5 mg/mL) and 10% of fetal calf serum (FCS). Cells were then mechanically dissociated by 3 passages through a 10 ml pipette. Cells were then centrifuged at 180×g for 10 min at +4° C. on a layer of BSA (3.5%) in L15 medium. The cell pellets was re-suspended in a defined culture serum-free medium consisting of Neurobasal (Invitrogen) supplemented with B27 (2%), L-glutamine (2 mM) and 2% of PS solution and 10 ng/ml of Brain-derived neurotrophic factor (BDNF) and 1 ng/mL of Glial-Derived Neurotrophic Factor (GDNF). […] The cells were seeded at a density of 40 000 cells/well in 96 well-plates (pre-coated with poly-L-lysine) and maintained in a humidified incubator at 37° C. in 5% CO2/95% air atmosphere. Half of the medium was changed every 2 days with fresh medium. On 96-wells plates, only 60 wells are used. To avoid any edge effect, the first and last lines and columns were not be used for culture and were filled with sterile water.
On day 6 of culture, CDNF or the compounds 1-20 (SEQ ID NO:s 1-20, parent and retro-inverso), were dissolved in culture medium and then pre-incubated with mesencephalic neurons for 4 hours before the MPP+ application. Four hours after the preincubation of the compounds, MPP+ was added to a final concentration of 4 μM, diluted in control medium still in presence of compounds for 48 h.
48 hours after intoxication, the cells were fixed by a solution of 4% paraformaldehyde in PBS, pH 7.3 for 20 min at room temperature. The cells were washed twice in PBS, and then permeabilized and non-specific sites were blocked with a solution of PBS containing 0.1% of saponin and 1% FCS for 15 min at room temperature. Next, the cells were incubated with (a) a monoclonal antibody anti-Tyrosine Hydroxylase (TH) produced in mouse at dilution of 1:1 0000 and with (b) a polyclonal antibody anti-alpha-synuclein (aSyn) antibody produced in rabbit at dilution of 1:400 in PBS containing 1% FCS, 0.1% saponin, for 2 h at room temperature.
48 hours after intoxication, the cell culture supernatant was removed, and the cells fixed by a solution of 4% paraformaldehyde in PBS, pH 7.3 for 20 min at room temperature. The cells were washed twice in PBS, and then permeabilized and non-specific sites were blocked with a solution of PBS containing 0.1% of saponin and 1% FCS for 15 min at room temperature. Then, the cells were incubated with a) a monoclonal Anti-Tyrosine Hydroxylase (TH) antibody produced in mouse at dilution of 1:10000 in PBS containing 1% FCS, 0.1% saponin, for 2 hours at room temperature, and b) a polyclonal anti-postsynaptic density protein-95 (PSD-95) antibody produced in rabbit at dilution of 1:200 in PBS containing 1% FCS, 0.1% saponin, for 2 h at room temperature. This antibody stains specifically synapses.
For each condition, pictures representing the whole well area were automatically acquired using ImageXpress (Molecular device) at 10× (20 pictures, for TH and a-syn) or at 40× magnification (60 pictures, for TH and PSD-95). […]

[4] = system: unfolded protein response (UPR) pathway signaling in TH-positive neurons injured with MPP+; experiment: Dependence of neuroprotection in MPP+-injured mesencephalic neurons on UPR signaling (PERK / IRE1alpha inhibitors); assay type: cell-based, rat
Description: CDNF and MANF protect cells from ER stress-induced cell dysfunction or cell death, such as apoptosis by modulating cellular responses to ER stress. […] Binding of compounds to GRP78-NBD was assessed in a cell-free binding assay using purified recombinant GRP78-NBD and synthesized peptides. As GRP78 also serves as a critical ligand of the three receptors of the unfolded protein response (UPR) pathway, IRE1[…], PERK and ATF6, the dependency of the compounds' neuroprotective effects on UPR signaling was also tested.
The neuronal cell culture, MPP+ intoxication, immunostaining and analysis of neuroprotective effects of compounds were performed as in Example 1. PERK inhibitor GSK2606414 (2 µM, Sigma) or IRE1alpha inhibitor KIRA6 (2 µM, Sigma) were added to is the culture 1 h before addition of the test compounds.

[5] = In vivo pharmacokinetics after intravenous administration to rats; settings: rat, 5 mg/kg intravenous bolus injection, male Sprague-Dawley rats, plasma
Description: Test compounds were intravenously (i.v.) administered to male Spraque-Dawley rats (about six weeks old, n=3 per compound) at 5 mg/kg. Blood samples were collected from jugular vein through implanted in-dwelling catheters (250 μl blood) into labelled polypropylene tubes containing anticoagulant (heparin) at 2 min, 5 min, 15 min, 30 min, 1 h, 2 h and 4 h after compound administration and held on wet ice for a maximum of 30 minutes. The blood samples were centrifuged for plasma separation (4° C., 21100 G, 5 min). Tolbutamide 500 ng/ml with 10% TFA in acetonitrile or in MeCN was used as an internal standard solution. The standard samples were prepared into rat plasma by spiking the matrix into concentrations 2-10 000 ng/ml of the analyte, respectively, and otherwise treated as the samples. To 50 μl aliquots of sample plasma was added 200 μl of internal standard. Samples were mixed (150 rpm, 15 min) and centrifugated (3000 rpm, 15 min). The analytical method was optimized for reaction monitoring chromatographic (peak shape & retention) shifts and mass spectrometric properties (ionization efficiency, MS/MS detection). Supernatants were is analyzed by UHPLC-TOF mass spectrometry using electrospray ionization. […]

[6] = molecular target: nucleotide-binding domain of GRP78 (GRP78-NBD); experiment: Binding to GRP78-NBD Kd (μM)
Description: Table printed on a drawing sheet, FIG. 5B
Head of the field: Binding to GRP78-NBD Kd (μM)
GRP78-NBD is shown in a to translucent surface model along with its cartoon trace. The Cys-Cys bond in compound 14 (SEQ ID NO: 14) is shown in sticks.
The binding affinities are obtained by microscale thermophoresis-based cell free assay.
GSK2606414 was used to inhibit PERK signaling and KIRA6 to inhibit IRE1alpha signaling. * p<0.05, ** p<0.01, *** p<0.001, **** p<0.0001 one-way ANOVA test with post-hoc Fisher's LSD test for pairwise comparison vs MPP+ negative control. #p<0.05, ##p<0.01, ###p<0.001, ####p<0.0001 one-way ANOVA test with post-hoc Fisher's LSD test for pairwise comparison between effect of compound alone and its combination with UPR signal inhibitor.
Where the first naming reader finds the target: head: Binding to GRP78-NBD Kd (μM)

Row | stability in human plasma as compared to parent compound [2] | stability in human hepatocytes as compared to parent compound (human hepatocytes) | Structure (SMILES) | stability in rat plasma as compared to parent compound [1] | stability in rat hepatocytes as compared to parent compound (rat hepatocytes) | potency of retro-inverso peptides relative to their parent compounds and to full-length CDNF protein [3] | neuroprotective effect in the presence of PERK inhibitor GSK2606414 ([4]; GSK2606414 added 1 h before test compound) | neuroprotective effect in the presence of IRE1alpha inhibitor KIRA6 ([4]; KIRA6 added 1 h before test compound) | AUC(0-inf) [5] [ng·h/mL] | MRT [5] [min] | Vd [5] [L/kg] | half-life [5] [min] | clearance ([5]; read-out: CI) [mL/min/kg] | Kd [6] [µM]
1 | improved stability | significantly improved stability | C[C@H](O)[C@@H](NC(=O)[C@H]1CSSC[C@@H](NC(=O)[C@@H](C)NC(=O)[C@@H](CCC(=O)O)NC(=O)[C@@H](CCCCN)NC(=O)[C@H](N)CO)C(=O)NCC(=O)N[C@H](CCCCN)C(=O)N1)C(=O)N[C@H](CCC(=O)O)C(=O)NCC(=O)O [Compound 8, SKEACGKCTEG] (H-[dS][dK][dE][dA][dC]G[dK][dC][dT][dE]G-OH; disulfide 5-8; N-terminus and C-terminus assumed) | significantly improved stability | significantly improved stability | – | – | – | – | – | – | – | – | –
2 | – | – | C[C@H](O)[C@@H](NC(=O)[C@H]1CSSC[C@@H](NC(=O)[C@@H](C)NC(=O)[C@H](N)CCC(=O)O)C(=O)NCC(=O)N[C@H](CCCCN)C(=O)N1)C(=O)N[C@H](CCC(=O)O)C(=O)O [Compound 20, EACGKCTE] | significantly improved stability | significantly improved stability | comparable | abolished | abolished | 18400 | 23.9 | 0.11 | 20.5 | 4.57 | 3.4
